This note sets out measurements from patent publication US10172957B2, “Acid-labile lipophilic prodrugs of cancer chemotherapeutic agents” (priority 2011, dated 2019).

SMILES strings stand for the structures.

The test system of one series is CEM/VLB100 cells (MDR+). Kind of series: cells. The series is classed as cell-based, human. The settings on record: for IC50: Homo sapiens, CEM/VLB100, read-out: IC50 CEM/VLB100 (MDR + HTL), CEM/VLB100, MTT; for Degree of resistance (CEM/VLB100): IC50 of the resistant line divided by IC50 of sensitive CEM cells. The text has this: A second evaluation of the cytotoxicity of the acid labile, lipophilic molecular conjugates was undertaken.
These lines included a uterine sarcoma line, MES-SA, and its doxorubicin-resistant subline, MES-SA/Dx5. See W. G. Harker, F. R MacKintosh, and B. I. Sikic. Development and characterization of a human sarcoma cell line, MES-SA, sensitive to multiple drugs. Cancer Research 43: 4943-4950 (1983); W. G. Harker and B. I. Sikic. Multidrug (pleiotropic) resistance in doxorubicin-selected variants of the human sarcoma cell line MES-SA. Cancer Research 45: 4091 4096 (1985).
The second set of cells tested, CCRF-CEM or simply CEM, were derived from the blood of a patient with acute lymphoblastic leukemia. G. E. Foley, H. Lazarus, S. Farber, B. G. Uzman, B. A. Boone, and R E. McCarthy. Continuous culture of human lymphoblasts from peripheral blood of a child with acute leukemia. Cancer 18: 522-529 (1965). The subline CEM/VLB100 was developed to be resistant to up to vinblastine at 100 ng/ml. W. T. Beck, T. J. Mueller, and L. R. Tanzer. Altered surface membrane glycoproteins in Vinca alkaloid-resistant human leukemic lymphoblasts. Cancer Research 39: 2070-2076 (1979). Drug resistance is achieved by overexpression of the MDR1 gene. Resistance in the CEM subline designated CEM/VM-1-5, however, is “atypical.” M. K. Danks, J. C. Yalowich, and W. T. Beck. Atypical multiple drug resistance in a human leukemic cell line selected for resistance to teniposide (VM-26). Cancer Research 47: 1297-1301 (1987). The classes of drugs included in the “classic” multiple drug resistance phenotype are Vinca alkaloids, anthracyclines, epipodophyllotoxins and antibiotics. However, CEM/VM-1-5 cells retain sensitivity to the Vinca alkaloids despite resistance and cross-resistance to etoposide, anthracyclines and mitoxantrone. Danks, M. K.; Schmidt, C. A.; Cirtain, M. C.; Suttle, D. P.; Beck, W. T., Altered catalytic activity of and DNA cleavage by DNA topoisomerase II from human leukemic cells selected for resistance to VM-26. Biochemistry 1988, 27, 8861-8869. Resistance in CEM/VM-1-5 cells is effected by over expression of the […]. CEM, CEM/VLB100 and CEM/VM-1-5 cells were obtained from Dr. WT Beck, University of Illinois at Chicago.

The nature of series [1]: Stability in mouse plasma at 37° C. The series is classed as in vitro ADME. As for the experimental part: The stability of the acid labile, lipophilic molecular conjugates to hydrolysis in plasma was evaluated to determine their potential to release the active cancer chemotherapeutic agents into systemic circulation and thereby cause general off target toxicity (“side effects”). The conjugates were incubated with plasma of mouse, rat and human origin.
HPLC grade Methanol from Fisher (Fair lawn, NJ, USA). Part No: A452-4 (074833). HPLC grade Water from Fisher (Fair lawn, NJ, USA). Part No: W5-4 (073352). Drug-free mouse, rat and human plasmas were purchased from Innovative Research Inc. (Southfield, Mich., USA). LIPOSYN® I.V. (30% soybean oil and egg yolk phospholipids, Abbott Laboratories) Fat Emulsion from Hospira, Inc. (Lake Forest, Ill.).
Each drug (ART 198, ART 273, ART 488 and ART 489) was prepared in triplicate in mouse, rat and human plasma individually at […] concentration and vortexed for 1 minute and placed in a water bath at 37° C. at a shake rate of 75 per minute. Samples were drawn at time points of 0, 15, 30, 45, 60, 75, 90, 105, 120, 135, 150, 165, 180, 210, 240, 300, 360 and 480 minutes.
Chromatographic separation of the compounds was performed on a Waters Acquity UPLC™ using a BEH C18 column (1.7 μm, 2.1×50 mm). The mobile phase consisted of Methanol: 0.1% Formic acid (80:20). The flow rate was 0.3 ml/min; the sample injection volume was 5 μL, resulting in a 3 minute run time.
The MS instrumentation consisted of a Waters Micromass Quattro Micro™ triple-quadrupole system (Manchester, UK). The MS system was controlled by a 4.0 version of MassLynx software. Ionization was performed in the positive electrospray ionization mode. MS/MS conditions were the following: capillary voltage 3.02 kV; cone voltage 50 v; extractor voltage 5 v; and RF lens voltage 0.5 v. The source and desolvation temperatures were 100° C. and 400° C. respectively, and the desolvation and cone gas flow were 400 and 30 L/hr, respectively.
The selected mass-to-charge (m/z) ratio transitions of the ART 198 used in the selected ion monitoring (SIM) were: for ART 198, 617 (M+K)^+, for ART 273, 589 (M+K)^+, for ART 488, 913 (M+Na)^+, and for ART 489, 957 (M+Na)^+. The dwell time was set at 200 msec. MS conditions were optimized using direct infusion of standard solutions prepared in methanol and delivered by a syringe pump at a flow rate of 20 μL/min.
Samples of 100 μL were collected at time points of 0, 15, 30, 45, 60, 75, 90, 105, 120, 135, 150, 165, 180, 210, 240, 300, 360 and 480 minutes respectively and the reaction was terminated with methanol. In a separate set of experiments the acid labile, lipophilic molecular conjugates were dissolved in a small amount of ethanol and diluted into a lipid emulsion (Liposyn®) and added to mouse and human plasma before incubation and the hydrolysis of the conjugates was similarly measured. Collected plasma samples of 100 μL containing drug were placed in separate Eppendorf micro centrifuge tubes for processing. Methanol (200 μL) was added to extract the drug using the protein precipitation technique. The micro tubes were then vortex mixed for 10 minutes and centrifuged for 15 minutes at a speed of 10,000 rpm (Eppendorf 5415C centrifuge). The supernatant was collected and filtered using a 0.45 μm filter (Waters 13 mm GHP 0.45 μm) before analysis.
The weighted linear least-squares (1/x) regression was used as the mathematical model. The coefficient (r) for the compounds ranged from 0.9925 to 0.9999. The calibration range was selected according to the concentrations anticipated in the samples to be determined.
Samples were collected at various times and the percent remaining of the acid labile, lipophilic molecular conjugate of the cancer chemotherapeutic agent was determined along with the percent of the chemotherapeutic agent released from the hydrolysis of the conjugate.

In the case of `COC(=O)[C@@]12OC[C@]34[C@H]([C@@H](O)[C@@H]1O)[C@@]1(C)CC(=O)C(O)=C(C)[C@@H]1C[C@H]3OC(=O)C(OC(=O)CC1(O)CCCCC1)[C@@H]24` (stereo partly drawn) [ART 198], the IC50 in the series on CEM/VLB100 cells (MDR+) was 7190 ± 1920 nM. Also, the “Degree of resistance (CEM/VLB100)” value with CEM/VLB100 cells (MDR+) stood at 76 ± 52. Besides, the “percent remaining of initial drug” value in series [1] (0 min) amounted to 100%; in series [1] (15 min), 96.8%; in series [1] (30 min), 94.0%; in series [1] (45 min) it was 85.5%; in series [1] (60 min), 82.0%; in series [1] (75 min), 72.6%. Further, the “percent remaining of initial drug” value in series [1] (90 min) amounted to 66.9%; in series [1] (105 min) it was 63.2%; in series [1] (120 min), 59.2%; in series [1] (135 min), 57.4%; in series [1] (150 min) it was 51.9%; in series [1] (165 min), 46.2%. In addition, the “percent remaining of initial drug” value in series [1] (180 min) is reported as 43.0%; in series [1] (210 min), 39.3%; in series [1] (240 min), 35.4%; in series [1] (300 min), 32.4%; in series [1] (360 min), 28.8%.

Take `CCCCCCCCCCCCCCCC1OCC(COC(=O)O[C@@H]2C(=O)C=C(C)[C@@H]3C[C@H]4OC(=O)C(OC(=O)CC(O)(C(C)C)C(C)C)C5[C@@H](C)[C@@H](O)[C@@]6(O)OC[C@@]54C6[C@@]23C)O1` (stereo partly drawn) [ART 488]: the IC50 with CEM/VLB100 cells (MDR+) amounted to 34 ± 12 nM. Also, in the series with CEM/VLB100 cells (MDR+), the “Degree of resistance (CEM/VLB100)” value was found to be 9 ± 4. The “percent remaining of initial drug” value in series [1] (0 min) was determined as 100%; in series [1] (15 min), 91.2%; in series [1] (30 min), 85.7%; in series [1] (45 min), 81.3%; in series [1] (60 min), 75.0%; in series [1] (75 min), 73.2%. The “percent remaining of initial drug” value is recorded as 65.2% in series [1] (90 min); 58.8% in series [1] (105 min); 56.4% in series [1] (120 min); 56.2% in series [1] (135 min); 55.0% in series [1] (150 min); 53.7% in series [1] (165 min). In addition, the “percent remaining of initial drug” value in series [1] (180 min) was 53.7%; in series [1] (210 min) it was 52.4%; in series [1] (240 min), 50.3%; in series [1] (300 min) it was 48.2%; in series [1] (360 min), 45.6%.

As to `CCCCCCCCCCCCCCCC1OCC(COC(=O)OC2=C(C)[C@@H]3C[C@H]4OC(=O)C(OC(=O)CC5(O)CCCCC5)[C@H]5[C@]6(C(=O)OC)OC[C@]45[C@H]([C@@H](O)[C@@H]6O)[C@@]3(C)CC2=O)O1` (stereo partly drawn) [ART 489], in the series on CEM/VLB100 cells (MDR+), the IC50 stood at 670 ± 71 nM. In addition, the “Degree of resistance (CEM/VLB100)” value in the series with CEM/VLB100 cells (MDR+) was determined as 33 ± 0. Also, the “percent remaining of initial drug” value in series [1] (0 min) turned out to be 100%; in series [1] (15 min), 95.7%; in series [1] (30 min), 88.6%; in series [1] (45 min), 84.8%; in series [1] (60 min) it was 79.2%; in series [1] (75 min) it was 78.1%. Besides, the “percent remaining of initial drug” value amounted to 70.1% in series [1] (90 min); 68.0% in series [1] (105 min); 64.1% in series [1] (120 min); 63.2% in series [1] (135 min); 59.4% in series [1] (150 min); 54.7% in series [1] (165 min). For the same compound, the “percent remaining of initial drug” value in series [1] (180 min) came out at 51.6%; in series [1] (210 min) it was 50.3%; in series [1] (240 min), 47.5%; in series [1] (300 min), 41.1%; in series [1] (360 min) it was 38.1%.
